Measurements reported in US12279600B2, “Genetically modified sterile avians and method for the reconstitution thereof” (The University Court of the University of Edinburgh, priority 2018, dated 2025).
Entries after “also recorded” stand apart in the source; their conditions may differ.

How the values were obtained:
[1] = tested on: PGCs containing the targeted icaspase9 gene; test: PGC culture with dimerization molecule B/B, total cell number after 10 days; type: cell-based, chicken
Description: FIG. 6 500 PGCs (dazl-GFP, dazl-human-Caspase or dazl-chicken-Caspase) were cultured in the presence or absence of the dimerization molecule B/B. After 10 days the total cell number was counted for each well. N=6 for each data point, from three independent experiments.
FIG. 22 500 PGCs (dazl-GFP, dazl-iCaspase, dazl-aviCaspase, ddx4-iCaspase9) were cultured in the presence or absence of the dimerization molecule B/B. After 10 days the total cell number was counted for each well. N=2 for each data point.
PGCs containing the targeted icaspase9 gene were treated with the B/B dimerization compound. […] These cells were mixed with control red fluorescent PGCs and injected into chicken embryos. The chicken embryos were treated with the B/B dimerization compound. Only red PGCs and control GFP PGCs were visible in the embryos. Dazl icaspase9 PGCs were killed (FIG. 7).
The iCaspase9 trasgene was targeted to either the DDX4 or the DAZL locus in PGCs and the cells were then exposed to the dimerisation drug. Cells containing the transgene inserted at the DAZL locus were determined to be inhibited/killed. Without wishing to be bound by theory, the inventors consider the expression levels at embryonic stages are important for ablating germ cells.

[2] = tested on: DAZL-iCasp9 targeted PGCs; test: Ablation of injected DAZL-iCasp9 targeted PGCs in embryos treated with B/B; type: in vivo, chicken; conditions: stage HH 16 embryos, 25 nM B/B, gonads viewed at 8 days; FIG. 7
Description: Stage HH 16 embryos were injected with 3500 PGCs transfected with CRISPR reagents to insert an inducible caspase gene and GFP at the dazl locus, and 3500 PGCs transfected with a transposon to insert a cassette for TdTomato expression randomly in the genome. After injection, embryos were dosed with 50 μl of 1× Pen/Strep with or without 25 nM of the dimeriser drug B/B. At 8 days of development, gonads were dissected and viewed under fluorescence. Images are representative of three independent injections for each treatment.
PGCs containing the targeted icaspase9 gene were treated with the B/B dimerization compound. […] These cells were mixed with control red fluorescent PGCs and injected into chicken embryos. The chicken embryos were treated with the B/B dimerization compound.

germ cells = test: Germ cell ablation in G2 Dazl-iCaspase9 and Dazl-aviCaspase9 embryos after B/B injection; type: in vivo, chicken; conditions: FIG. 11
Description: B/B was injected into the dorsal aorta of stage 16 chicken embryos (day 2.5). Embryos were incubated and examined at day 10 for GFP fluorescence and DDX4 expression. Left panels; GFP fluorescence in B/B injected iCaspase9 and aviCaspase9 embryos. Right panels: immunofluorescence for DDX4 protein (red).
The G1 Dazl-icaspase9 and Dazl-aviCaspase9 chickens were raised to sexual maturity and mated with wildtype chickens. Fertile eggs from the matings (G2 embryos) were incubated and examined for GFP expression in the gonads. The germ cells in the gonads of both Dazl-icaspase9 and Dazl-avicaspase9 G2 embryos contained GFP+ cells in the gonad (FIG. 9). […] The G2 embryos were tested for germ cell ablation. 1.0 μl of 0.1 mM B/B dimerization reagent (Takara Bio, Inc) was injected into the bloodstream of day 2.5 (stage 16 Hamilton & Hamburger (HH)) chicken embryos. The embryos were incubated for 8 days, PCR-screened to identify iCaspase9 embryos and examined for GFP expression in the gonads. […] Embryos were incubated for 8 days and examined for florescence and germ cells. […] (FIG. 12).

[3] = tested on: endogenous (host) germ cells; test: Host germ cell ablation and donor PGC colonisation in Dazl-aviCaspase9 G2 embryos with B/B; type: in vivo, chicken; conditions: Dazl-aviCaspase9 G2 embryos injected with donor TdTomato PGCs and B/B, examined at day 10; FIG. 12
Description: FIG. 12 B/B drug treatment of aviCaspase9 transgenic embryos ablates host germ cells and permits transplanted donor cells to populate the host gonad. Stage HH 16 embryos containing the aviCaspase9 transgene targeted to the DAZL locus, were injected with 200 donor PGCs transfected with a transposon to insert a cassette for TdTomato expression randomly in the genome. Injected cells were in 1 μl of solution containing 0.5 mM (final concentration) B/B dimerization drug. After injection, eggs were dosed with 50 μl of 1× Pen/Strep containing 15 μM (final concentration) B/B dimeriser drug and incubated for 8 days. At 10 days of development, gonads were dissected and viewed under fluorescence.
The G1 Dazl-icaspase9 and Dazl-aviCaspase9 chickens were raised to sexual maturity and mated with wildtype chickens. Fertile eggs from the matings (G2 embryos) were incubated and examined for GFP expression in the gonads. The germ cells in the gonads of both Dazl-icaspase9 and Dazl-avicaspase9 G2 embryos contained GFP+ cells in the gonad (FIG. 9). […] The G2 embryos were tested for germ cell ablation. 1.0 μl of 0.1 mM B/B dimerization reagent (Takara Bio, Inc) was injected into the bloodstream of day 2.5 (stage 16 Hamilton & Hamburger (HH)) chicken embryos. The embryos were incubated for 8 days, PCR-screened to identify iCaspase9 embryos and examined for GFP expression in the gonads. […]

host germ cells = test: Offspring from Dazl-Caspase9 hosts injected with Silkie donor PGCs and B/B; type: in vivo, chicken; conditions: Dazl-Caspase9 hosts injected with black skinned Silkie PGCs; FIG. 23
Description: FIG. 23 illustrates the use of caspase9 host ablation using black skinned silkie chicken donor PGCs injected into the iCaspase9 surrogate host embyros which are hatched and bred to produce pure offspring. […] (A-C) The offspring (embryos and chicks) have black skins indicating they came from the donor germ cells.
Utilising caspase 9 expression targeted to the DAZL locus in PGCs, host germ cell ablation and producing offspring from a donor chicken breed were tested using chicken donor PGCs from a black skinned silkie chicken breed. Donor PGCs injected into the caspase host embryos which were then raised to sexual maturity and bred were tested.
In more detail, in this embodiment, black skinned Silkie PGCs were mixed with B/B dimerisation drug and injected into Dazl-Caspase host embryos whilst in the egg. The eggs were sealed and the embryos were hatched then crossed to each other when sexual mature.
50% of offspring should be GFP positive if derived from the endogenous GFP+ caspase9 host PGCs.

FKBP12F36V = FKBP12F36V (Homo sapiens, UniProt P62942, F37V); conditions: cited from earlier work
FKBP12F36V, sequence (P62942 whole entry F37V): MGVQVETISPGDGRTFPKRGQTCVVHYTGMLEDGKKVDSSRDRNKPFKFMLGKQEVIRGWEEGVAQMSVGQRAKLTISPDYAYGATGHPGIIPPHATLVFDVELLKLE

endogenous FKBPs = conditions: cited from earlier work
[4] = tested on: PGCs containing the targeted nitroreductase gene; test: PGC culture with nitroreductase pro-drug CB1954, total cell number after 10 days; type: cell-based, chicken
Description: FIG. 5 500 PGCs (Control, CAG-NTR or Dazl-NTR) were cultured in the presence or absence of the nitroreductase pro-drug CB1954 (n=2 for each concentration of pro-drug). After 10 days the total cell number was counted for each well. N=6 for each data point, from three independent experiments.
PGCs containing the targeted nitroreductase gene were treated with the pro-drug CB1954. PGCs died when exposed to the drug.

Row | SMILES | PGC number ([1]; control untargeted PGCs) | PGC number ([1]; human and chicken caspase9 genes targeted to the dazl locus, FIG. 6) | PGC number ([1]; iCaspase 9 targeted to the ddx4 locus) | effect on cells with iCaspase9 transgene ([1]; transgene inserted at the DAZL locus, FIG. 22) | fate of injected Dazl icaspase9 PGCs in embryos [2] | GFP expression in the gonads (germ cells; 1.0 μl of 0.1 mM injected at day 2.5, incubated 8 days) | DDX4 positive or GFP+ germ cells in the gonads (germ cells; cryosections and DDX4 immuno-staining) | endogenous (host) germ cells in the gonad [3] | skin phenotype of offspring (donor origin) (host germ cells) | affinity and selectivity for FKBP12F36V (FKBP12F36V) | interaction with endogenous FKBPs (endogenous FKBPs) | cell number versus control cells ([4]; NTR targeted to the dazl locus, FIG. 5) | PGC survival on exposure to pro-drug ([4]; PGCs containing the targeted nitroreductase gene)
1 | CC[C@H](C(=O)N1CCCC[C@H]1C(=O)O[C@H](CCc1ccc(OC)c(OC)c1)c1cccc(OCC(=O)NCC(CNC(=O)COc2cccc([C@@H](CCc3ccc(OC)c(OC)c3)OC(=O)[C@@H]3CCCCN3C(=O)[C@@H](CC)c3cc(OC)c(OC)c(OC)c3)c2)CN(C)C)c1)c1cc(OC)c(OC)c(OC)c1 [B/B, AP20187] | did not have reduced numbers of PGCs | severely reduced PGC numbers | slightly less PGC number | inhibited/killed | killed; also recorded: ablates | no visible GFP expression | almost no identifiable DDX4 positive or GFP+ cells are present; also recorded: no germ cells | no endogenous (host) germ cells were detected | black skin | high affinity and selectivity | minimal interaction |  | 
2 | CC[C@H](C(=O)N1CCCC[C@H]1C(=O)O[C@H](CCc1ccc(OC)c(OC)c1)c1cccc(OCC(=O)NCCNC(=O)COc2cccc([C@@H](CCc3ccc(OC)c(OC)c3)OC(=O)[C@@H]3CCCCN3C(=O)[C@@H](CC)c3cc(OC)c(OC)c(OC)c3)c2)c1)c1cc(OC)c(OC)c(OC)c1 [AP1903] |  |  |  |  |  |  |  |  |  | high affinity and selectivity | minimal interaction |  | 
3 | NC(=O)c1cc(N2CC2)c([N+](=O)[O-])cc1[N+](=O)[O-] [CB1954] |  |  |  |  |  |  |  |  |  |  |  | reduction in cell number in comparison to the control cells | died
